Laboratory results: patent US9694090B2, “Process for preparing hyperpolarized substrates and method for MRI” (priority 2010, dated 2017)

Tests used:
[1] = DNP solid-state polarization signal and build-up (1.2 K, 3.35 T); settings: DNP at 1.2 K
Description: To this solution 1.1 mg (0.77 μmol) radical 1 was added. […] This entire sample was hyperpolarized under DNP conditions at 1.2 K in a 3.35 T magnetic field under irradiation with microwave (93.900 GHz) until the polarization was fully build-up. The polarization was monitored in solid state with small pulse angles (5 degree) collected every 300 s.
This entire sample was polarized under DNP conditions at 1.2 K in a 3.35 T magnetic field under irradiation with microwave (93.900 GHz) until the polarization was fully built-up. The polarization was monitored in solid state with small pulse angles (5 degree) collected every 300 s.
To this solution 0.77 mg (0.54 μmol) radical 1 was added. […] This entire sample was polarized under DNP conditions at 1.2 K in a 3.35 T magnetic field under irradiation with microwave (93.900 GHz) until the polarization was fully built-up. The polarization was monitored in solid state with small pulse angles (5 degree) collected every 300 s.
To this solution 1.65 mg (1.15 μmol) radical 1 was added. […] This entire sample was polarized under DNP conditions at 1.2 K in a 3.35 T magnetic field under irradiation with microwave (93.900 GHz) until the polarization was fully built-up. The polarization was monitored in solid state with small pulse angles (5 degree) collected every 300 s.
63.2 mg (0.33 mmol) of this sample was hyperpolarized under DNP conditions at 1.2 K in a 3.35 T magnetic field under irradiation with microwave (93.900 GHz) until the polarization was fully built-up.

[2] = Glass formation of the DNP preparation upon rapid freezing in liquid nitrogen; format: physicochemical; settings: for Glass formation upon rapid freezing in liquid nitrogen: dissolved in 12 M NaOH with radical 1; for Glass formation upon rapid freezing: with trityl radical, without addition of glass-forming agents
Description: Butyric acid (11.7 mg, 0.13 mmol) was placed into an Eppendorf tube and mixed with 9.0 mg of a glycerol solution containing 39 mM of Radical 1. This preparation was 7 M with respect to butyric acid.
Butyric anhydride (40 μl, 0.24 mmol) was added to an Eppendorf tube and mixed with 1 mg of Radical 3 in a total concentration of 15 mM. This preparation was 6.5 M with respect to butyric anhydride (which, upon hydrolysis provides a 13 M concentration in butyric acid molecules).
Butyric acetic anhydride (36 μl, 0.28 mmol) was added to an Eppendorf tube and mixed with 0.85 mg of acid form of Radical 3 in a total concentration of 15 mM. This preparation was 7.5 M with respect to butyric acetic acid.
Li-acetoacetate (22.4 mg, 0.21 mmol) was added to an Eppendorf tube and mixed with 28 μl of a DMSO preparation (25 mM Radical 3 and 0.8 mM 3-Gd). This preparation was 4 M with respect to Li-acetoacetate.
To an Eppendorf tube was added diketene (9.6 mg, 0.11 mmol) and mixed with 4.7 mg of a DMSO preparation of Radical 3 (45 mM) and 3-Gd (1.5 mM). This preparation was 8.5 M with respect to diketene.
Ethyl acetoacetate (45 μl, 0.34 mmol) was added to an Eppendorf tube and mixed with acid form of Radical 2 (0.7 mg, 0.65 μmol) in a total concentration of 15 mM. This preparation was 8 M with respect to ethyl acetoacetate.
Cis-aconitic acid (18.6 mg, 0.11 mmol) was added to an Eppendorf tube and mixed with a 32.5 μl DMSO preparation (25 mM Radical 3 and 0.8 mM 3-Gd). This preparation was 2.5 M with respect to cis-aconitic acid.
Cis-aconitic anhydride (188 mg, 1.2 mmol) was added to an Eppendorf tube and mixed with 2.85 mg (2 μmol) of Radical 1 and 0.98 mg of a 83 μmol/g solution of 3-Gd. This preparation was 9 M with respect to cis-aconitic anhydride.
Succinic acid (42.1 mg, 0.35 mmol) was added to an Eppendorf tube and mixed and mixed with 92 mg of a DMSO preparation (20 mM Radical 3 and 0.8 mM 3-Gd). This preparation was 4 M with respect to succinic acid.
Succinic anhydride (21.5 mg, 0.21 mmol) was added to an Eppendorf tube and mixed with 21.8 mg of a DMSO solution of Radical 3 (30 mM) and of 3-Gd (1 mM). This preparation was 6 M with respect to succinic anhydride.
Succinic-(1)-ethyl ester (111 mg, 0.75 mmol) was added to an Eppendorf tube and mixed with the carboxylic acid form of Radical 2 (2.4 mg, 1.5 μmol) and 3-Gd (3.4 μl of a 14.5 mM solution in water). This preparation was 6 M with respect to succinic-(1)-ethyl ester.
(§1) L-Glutamine (50.9 mg, 0.35 mmol) was added to an Eppendorf tube and dissolved in 29 μl of 12 M NaOH and mixed with 1.7 mg of radical 1 and 3-Gd (2.3 μl of a 14.5 mM water stock solution). This preparation was 4 M with respect to L-glutamine.

[3] = Hydrolysis of the DNP hyperpolarized precursor on dissolution with strong base, followed by 13C-NMR time series; format: physicochemical; settings: water with added NaOH
Description: (§2) The composition from example 1b (25 mg, 0.16 mmol) was transferred from the Eppendorf tube to a sample cup and the sample cup was inserted into a DNP polariser. The composition was hyperpolarised under DNP conditions at 1.2 K in a 3.35 T magnetic field under irradiation with microwave (93.915 GHz). The sample was hyperpolarized for 75 min.
The sample was dissolved in 4 ml water with added NaOH (50 μl of 12M solution). The pH of the dissolved sample was 12. The solution was collected directly into a 10 mm NMR tube and transferred to a 14.1 T magnet where a time series of 5 degree 1D 13C-NMR spectra were recorded with a total delay between the pulses of 1 s.
as §2, with “is (33” for “1b (25”, “0.25” for “0.16”, “90” for “75”
The sample was dissolved in 5 ml water with added NaOH (125 μl of 12M). The solution was collected directly into a 10 mm NMR tube and transferred to a 14.1 […]) T magnet where a time series of 5 degree 1D 13C-NMR spectra were recorded with a total delay between the pulses of 1 s.
(§3) The entire composition from example 2b was transferred from the Eppendorf tube to a sample cup and the sample cup was inserted into a DNP polariser. The composition was hyperpolarised under DNP conditions at 1.2 K in a 3.35 T magnetic field under irradiation with microwave (93.915 GHz). The sample was hyperpolarized for 3 hours.
(§4) The sample was dissolved in 5 ml water with added NaOH (125 μl of 12 M). The solution was collected directly into a 10 mm NMR tube and transferred to a 14.1 T magnet (pH 13) where a time series of 64 five degree 1D 13C-NMR spectra were recorded with a total delay between the pulses of 3 s.
as §2, with “is (20.5” for “1b (25”, “2 hours.” for “75 min.”
(§5) The sample was dissolved in 5 ml water with added NaOH (200 μl of 12 M). The solution was collected directly into a 10 mm NMR tube and transferred to a 14.1 T magnet (pH 12.8) where a time series of 5 degree 1D 13C-NMR spectra were recorded with a total delay between the pulses of 3 s.
as §3, with “The” for “The entire”, “2b was melted on a water-bath and stirred with a magnetic stirrer. 45 mg of this preparation (0.29 mmol)” for “2b”, “90 min.” for “3 hours.”
(§6) The sample was dissolved in 6 ml water with added NaOH (190 μl of 12 M). The solution was collected directly into a 10 mm NMR tube and transferred to a 14.1 T magnet (pH 12.8) where a time series of 64 five degree 1D 13C-NMR spectra were recorded with a total delay between the pulses of 3 s.

[4] = Glass formation of the DNP preparation upon rapid freezing in liquid nitrogen; format: physicochemical; settings: dissolved in heated water with Radical 1 and 3-Gd
[5] = test system: carboxylic-ester hydrolase from porcine liver; assay: Enzymatic hydrolysis of the hyperpolarized ester with esterase, 13C-NMR time series; format: biochemical; settings: approximately 270 U esterase, phosphate buffer pH 7.3, 37° C.
From the text: The ester was fully hydrolyzed to acetoacetate after 12s.

[6] = biological target: T1, acylase from porcine kidney (Sus scrofa, UniProt P37111); assay: Enzymatic hydrolysis of the hyperpolarized N-acetyl amino acid with acylase, 13C-NMR time series; format: biochemical; settings: phosphate buffer pH 7.3, 37° C.
T1 construct: an acylase from porcine kidney; from tissue; host or cells: porcine kidney
T1 sequence (P37111 2-407 limits assumed): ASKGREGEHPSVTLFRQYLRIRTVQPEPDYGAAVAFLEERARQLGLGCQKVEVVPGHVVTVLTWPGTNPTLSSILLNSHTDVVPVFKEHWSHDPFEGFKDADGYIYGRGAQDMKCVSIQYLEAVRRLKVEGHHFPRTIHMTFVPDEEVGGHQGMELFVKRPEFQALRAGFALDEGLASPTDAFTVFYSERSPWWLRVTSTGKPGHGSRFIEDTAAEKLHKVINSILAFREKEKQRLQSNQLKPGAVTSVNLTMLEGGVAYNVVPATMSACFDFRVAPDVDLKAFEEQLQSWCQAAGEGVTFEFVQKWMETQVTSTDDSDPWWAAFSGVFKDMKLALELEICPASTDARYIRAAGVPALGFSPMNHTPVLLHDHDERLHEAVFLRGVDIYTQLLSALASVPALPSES
Description: The sample was hyperpolarized for 60 min.
The 10 mm NMR tube contained a 1 ml phosphate solution of approximately 90 U of an acylase from porcine kidney.
35 mg of N-acetyl glycine (117.1 g/mol, 0.298 mmol) was dissolved in 26 μl 12 M NaOH. Heating, sonication and vortexing was applied to create a clear glassing solution. The total weight of the sample was 71 mg (50 μl weigh 65 mg). 1.05 mg Radical 1 and 1.5 μl of a 3-Gd stock solution ([…]) was added. The total N-acetyl glycine concentration in the sample was 5.5 M, the radical concentration was 13.5 mM, and the 3-Gd concentration was 0.4 mM.
The sample was dissolved in 7 ml 40 mM phosphate buffer (40 mM, pH 7.3). […] The 10 mm NMR tube contained a 500 μl phosphate solution of approximately 230 U of an acylase (5.2 mg) from porcine kidney.

[7] = Degradation / isomerisation of the substrate in DNP preparation and dissolution (NMR)
Description: as §3, with “2a” for “2b”, “75 min.” for “3 hours.”
The sample was dissolved in 5 ml phosphate buffer pH 7.3 (40 mM+EDTA).
The solution was collected directly into a 10 mm NMR tube and transferred to a 14.1 T magnet where a 90 degree 1D 13C-NMR spectrum was recorded.
as §4, §5
The sample was dissolved in 5 ml 40 mM phosphate buffer pH 7.3+100 mg/l EDTA, thus resulting in an ester concentration of 20 mM. 1 ml of the ester solution was injected through a transfer line into a 10 mm NMR tube placed at 14.1 T and 37° C. The 10 mm NMR tube contained a 500 μl solution of approximately 270 U of a carboxylic-ester hydrolase from porcine liver. A time series of 10 degree 1D 13C-NMR spectra were recorded with a total delay between the pulses of 3 s.
as §5, with “phosphate buffer (40 mM, pH 7.3)” for “water”, “30” for “NaOH (200”, “μl” for “μl of”, “M NaOH. […]” for “M).”, “magnet” for “magnet (pH 12.8)”
as §6, §1
N-acetyl-L-glutamine (57.2 mg, 0.3 mmol) was added to an Eppendorf tube and dissolved in 25.3 μl of 12 M NaOH and mixed with 1.9 mg of radical 1 and 3-Gd (2.3 μl of a 14.5 mM water stock solution).

Glass formation upon rapid freezing [2] | SMILES | Polarization build-up time constant [1] [s] | Glass formation upon rapid freezing in liquid nitrogen [2] | further results
 | C=C(CC(=O)O)[13C](=O)O [1-13C Itaconic acid, reference compound] | 1790 | formed a glass | 
 | O=C1N[C@H]([13C](=O)O)CS1 [1-13C OTZ, 1-13C-L-oxothiazolidine-4-carboxylic acid, reference compound] | 3500 | formed a glass | 
 | O=C1CCC([13C](=O)O)N1 (centres unmarked) [1-13C Pyroglutamic acid, reference compound] | 2000 | formed a glass | 
formed a glass | CCOC(=O)C1CCC(=O)N1 (centres unmarked) [1-13C pyroglutamic ethyl ester] | 2070 |  | Precursor hydrolyzed ([3]; in less than 10 s, pH 11-12.6): at least 95%
 | O=C([O-])CCC(=O)C(=O)[O-].[Na+].[Na+] [2-oxoglutarate sodium salt] |  |  | Glass formation upon rapid freezing in liquid nitrogen [4]: formed a glass
formed a glass | CCOC(=O)CC(C)=O [Ethyl acetoacetate] |  |  | Time after which ester was fully hydrolyzed [5]: 12 s; Precursor hydrolyzed ([3]; after 10 s, pH 12-13): approximately 20%
 | CC(=O)NCC(=O)O [N-acetyl glycine] |  |  | Time after which precursor was fully hydrolyzed ([6]; approximately 230 U acylase): 30 s
 | CC(=O)N[C@@H](CCC(N)=O)C(=O)O [N-acetyl-L-glutamine] |  | formed a glass | Degradation in the DNP preparation [7]: does not degrade; Degradation in the dissolution process ([7]; pH 7.3): does not degrade; Time after which precursor was fully hydrolyzed ([6]; approximately 90 U acylase): 45 s

SMILES | Glass formation upon rapid freezing [2] | Polarization build-up time constant [1] [s] | Glass formation upon rapid freezing in liquid nitrogen [2] | further results
CCO[13C](=O)C1CSC(=O)N1 (centres unmarked) [1-13C OTZ ethyl ester] | formed a glass | 1925 |  | 
